Residues, ends and D or L forms follow the SMILES beside them.
Tested on: E. coli BL21
Conditions: BL21, 17 h
Summary of the method: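 EUCAST broth microdilution in Mueller-Hinton medium; end-exponential culture diluted to 0.005 McF (~1.5x10^6 CFU/mL) before 1:1 mixing with two-fold peptide dilutions (0.75 to 100 μg/mL), triplicates.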

| SMILES | BL21 MIC [µg/mL] |
| --- | --- |
| CC[C@H](C)[C@H](NC(=O)CNC(=O)[C@H](CC(C)C)NC(=O)[C@@H](N)CCCNC(=N)N)C(=O)N[C@@H](C)C(=O)N[C@H](C(=O)N[C@@H](C)C(=O)N[C@@H](C)C(=O)N[C@@H](CCCNC(=N)N)C(=O)N[C@@H](CCCNC(=N)N)C(=O)N1CCC[C@H]1C(=O)N[C@@H](CCCNC(=N)N)C(=O)N[C@@H](CC(C)C)C(=O)NCC(=O)N[C@H](C(=O)N[C@@H](C)C(=O)N[C@H](C(=O)N[C@@H](C)C(=O)N[C@@H](CC(C)C)C(=O)N[C@@H](CCCNC(=N)N)C(=O)N[C@@H](CCCNC(=N)N)C(=O)O)C(C)C)[C@@H](C)CC)C(C)C [Peptide P33-8LA] (H-RLGIAVAARRPRLGIAVALRR-OH) | 6.25 |
| CC(C)C[C@H](NC(=O)CNC(=O)[C@H](CCCNC(=N)N)NC(=O)[C@@H]1CCCN1C(=O)[C@H](CCCNC(=N)N)NC(=O)[C@H](CCCNC(=N)N)NC(=O)[C@@H](NC(=O)[C@H](CC(C)C)NC(=O)[C@H](C)NC(=O)[C@H](CC(C)C)NC(=O)CNC(=O)[C@H](CC(C)C)NC(=O)CNC(=O)[C@@H](N)CCCNC(=N)N)[C@@H](C)O)C(=O)NCC(=O)N[C@@H](CC(C)C)C(=O)N[C@@H](C)C(=O)N[C@@H](CC(C)C)C(=O)N[C@H](C(=O)N[C@@H](CCCNC(=N)N)C(=O)N[C@@H](CCCNC(=N)N)C(=O)O)[C@@H](C)O [V7T (P2)] (H-RGLGLALTRRPRGLGLALTRR-OH) | 50.00 |
| CC(C)C[C@H](NC(=O)CNC(=O)[C@H](CCCNC(=N)N)NC(=O)[C@@H]1CCCN1C(=O)[C@H](CCCNC(=N)N)NC(=O)[C@H](CCCNC(=N)N)NC(=O)[C@@H](NC(=O)[C@H](CC(C)C)NC(=O)[C@H](C)NC(=O)[C@H](CC(C)C)NC(=O)CNC(=O)[C@H](C)NC(=O)CNC(=O)[C@@H](N)CCCNC(=N)N)C(C)C)C(=O)NCC(=O)N[C@@H](CC(C)C)C(=O)N[C@@H](C)C(=O)N[C@@H](CC(C)C)C(=O)N[C@H](C(=O)N[C@@H](CCCNC(=N)N)C(=O)N[C@@H](CCCNC(=N)N)C(=O)O)C(C)C [Peptide P2_L3A] (H-RGAGLALVRRPRGLGLALVRR-OH) | 12.50 |
| CC(C)C[C@H](NC(=O)CNC(=O)[C@H](CCCNC(=N)N)NC(=O)[C@@H]1CCCN1C(=O)[C@H](CCCNC(=N)N)NC(=O)[C@H](CCCNC(=N)N)NC(=O)[C@@H](NC(=O)[C@H](CC(C)C)NC(=O)[C@H](C)NC(=O)[C@H](CC(C)C)NC(=O)CNC(=O)[C@H](CC(C)C)NC(=O)CNC(=O)[C@@H](N)CCCNC(=N)N)C(C)C)C(=O)NCC(=O)N[C@@H](CC(C)C)C(=O)N[C@@H](C)C(=O)N[C@@H](CC(C)C)C(=O)N[C@@H](C)C(=O)N[C@@H](CCCNC(=N)N)C(=O)N[C@@H](CCCNC(=N)N)C(=O)O [Peptide P2_V19A] (H-RGLGLALVRRPRGLGLALARR-OH) | 25.00 |
| CC[C@H](C)[C@H](NC(=O)CNC(=O)[C@H](CC(C)C)NC(=O)[C@H](CCCNC(=N)N)NC(=O)[C@@H]1CCCN1C(=O)[C@H](CCCNC(=N)N)NC(=O)[C@H](CCCNC(=N)N)NC(=O)[C@H](CC(C)C)NC(=O)[C@H](C)NC(=O)[C@@H](NC(=O)[C@H](C)NC(=O)[C@@H](NC(=O)CNC(=O)[C@H](CC(C)C)NC(=O)[C@@H](N)CCCNC(=N)N)[C@@H](C)CC)C(C)C)C(=O)N[C@@H](C)C(=O)N[C@H](C(=O)N[C@@H](C)C(=O)N[C@@H](C)C(=O)N[C@@H](CCCNC(=N)N)C(=O)N[C@@H](CCCNC(=N)N)C(=O)O)C(C)C [Peptide P33-L19A] (H-RLGIAVALRRPRLGIAVAARR-OH) | 6.25 |
| CC(C)C[C@H](NC(=O)CNC(=O)[C@H](CCCNC(=N)N)NC(=O)[C@H](CCCNC(=N)N)NC(=O)[C@H](C)NC(=O)[C@H](CCCNC(=N)N)NC(=O)[C@@H](NC(=O)[C@H](CC(C)C)NC(=O)[C@H](C)NC(=O)[C@H](CC(C)C)NC(=O)CNC(=O)[C@H](CC(C)C)NC(=O)CNC(=O)[C@@H](N)CCCNC(=N)N)C(C)C)C(=O)NCC(=O)N[C@@H](CC(C)C)C(=O)N[C@@H](C)C(=O)N[C@@H](CC(C)C)C(=O)N[C@H](C(=O)N[C@@H](C)C(=O)N[C@@H](CCCNC(=N)N)C(=O)O)C(C)C [Peptide P2_4R_R] (H-RGLGLALVRARRGLGLALVAR-OH) | 12.50 |
